Results taken from patent publication US7101906B2, “2,3,4-substituted cyclopentanones as therapeutic agents” (Allergan, Inc., priority 2004, dated 2006).

Columns and labels:
HEP4 = target: T1, HEP4 (Homo sapiens, UniProt P35408); assay: Radioligand binding, EP4 receptor; details: competition vs [3H]PGE2 5 nM, HEK-293 cell membranes
T1 construct: expressed in transfected cells; membrane fraction
Procedure: (§1) HEK-293 cells stably expressing the human or feline FP receptor, or EP1, EP2, or EP4 receptors were washed with TME buffer, scraped from the bottom of the flasks, and homogenized for 30 sec using a Brinkman PT 10/35 polytron. TME buffer was added to achieve a final 40 ml volume in the centrifuge tubes (the composition of TME is 100 mM TRIS base, 20 mM MgCl2, […]; 10N HCl is added to achieve a pH of 7.4).
(§2) The cell homogenate was centrifuged at 19000 r.p.m. for 20 min at 4° C. using a Beckman Ti-60 rotor. The resultant pellet was resuspended in TME buffer to give a final 1 mg/ml protein concentration, as determined by Biorad assay. Radioligand binding competition assays vs. [^3H-]17-phenyl PGF2α (5 nM) were performed in a 100 μl volume for 60 min. Binding reactions were started by adding plasma membrane fraction. The reaction was terminated by the addition of 4 ml ice-cold TRIS-HCl buffer and rapid filtration through glass fiber GF/B filters using a Brandel cell harvester. The filters were washed 3 times with ice-cold buffer and oven dried for one hour. Non-specific binding was determined with 10 uM unlabeled 17-phenyl PGF2α.
[^3H-] PGE2 (5 nM; specific activity 180 Ci mmol) was used as the radioligand for EP receptors. Binding studies employing EP1, EP2, EP3, EP4 were performed in duplicate in at least three separate experiments. A 200 μl assay volume was used. Incubations were for 60 min at 25° C. and were terminated by the addition of 4 ml of ice-cold 50 mM TRIS-HCl, followed by rapid filtration through Whatman GF/B filters and three additional 4 ml washes in a cell harvester (Brandel). Non-specific binding determined with 10^−5M of unlabeled PGE2.

hEP4/Gqs5 = target: T2, hEP4/Gqs5 (Homo sapiens, UniProt P35408); assay: FLIPR calcium signal, hEP4/Gqs5; format: cell-based; details: HEK-293(EBNA) cells, read-out: Functional EC50 (nM) HEP4
T2 construct: expressed in transfected cells
Procedure: (§3) HEK-293(EBNA) cells, stably expressing one type or subtype of recombinant human prostaglandin receptors (prostaglandin receptors expressed: hDP/Gqs5; hEP1; hEP2/Gqs5; hEP3A/Gqi5; hEP4/Gqs5; hFP; hIP; hTP), were cultured in 100 mm culture dishes in high-glucose DMEM medium containing 10% fetal bovine serum, 2 mM 1-glutamine, 250 μg/ml geneticin (G418) and 200 μg/ml hygromycin B as selection markers, and 100 units/ml penicillin G, 100 μg/ml streptomycin and 0.25 μg/ml amphotericin B.
(§4) Cells were seeded at a density of 5×10^4 cells per well in Biocoat® Poly-D-lysine-coated black-wall, clear-bottom 96-well plates (Becton-Dickinson) and allowed to attach overnight in an incubator at 37° C. Cells were then washed two times with HBSS-HEPES buffer (Hanks Balanced Salt Solution without bicarbonate and phenol red, 20 mM HEPES, pH 7.4) using a Denley Cellwash plate washer (Labsystems). After 45 minutes of dye-loading in the dark, using the calcium-sensitive dye Fluo-4 AM at a final concentration of 2 μM, plates were washed four times with HBSS-HEPES buffer to remove excess dye leaving 100 μl in each well. Plates were re-equilibrated to 37° C. for a few minutes.
(§5) Cells were excited with an Argon laser at 488 nm, and emission was measured through a 510–570 nm bandwidth emission filter (FLIPR™, Molecular Devices, Sunnyvale, Calif.). Drug solution was added in a 50 μl volume to each well to give the desired final concentration. The peak increase in fluorescence intensity was recorded for each well. On each plate, four wells each served as negative (HBSS-HEPES buffer) and positive controls (standard agonists: BW245C (hDP); PGE2 (hEP1; hEP2/Gqs5; hEP3A/Gqi5; hEP4/Gqs5); PGF2α (hFP); carbacyclin (hIP); U-46619 (hTP), depending on receptor). The peak fluorescence change in each drug-containing well was then expressed relative to the controls.
(§6) Compounds were tested in a high-throughput (HTS) or concentration-response (CoRe) format. In the HTS format, forty-four compounds per plate were examined in duplicates at a concentration of 10^−5 M. To generate concentration-response curves, four compounds per plate were tested in duplicates in a concentration range between 10^−5 and 10^−11 M. The duplicate values were averaged. In either, HTS or CoRe format each compound was tested on at least 3 separate plates using cells from different passages to give an n≧3.

hEP1 = target: T3, hEP1 (Homo sapiens, UniProt P34995); assay: FLIPR calcium signal, hEP1; format: cell-based; details: HEK-293(EBNA) cells, read-out: Functional EC50 (nM) HEP1
T3 construct: expressed in transfected cells
T3 sequence (P34995 1-402): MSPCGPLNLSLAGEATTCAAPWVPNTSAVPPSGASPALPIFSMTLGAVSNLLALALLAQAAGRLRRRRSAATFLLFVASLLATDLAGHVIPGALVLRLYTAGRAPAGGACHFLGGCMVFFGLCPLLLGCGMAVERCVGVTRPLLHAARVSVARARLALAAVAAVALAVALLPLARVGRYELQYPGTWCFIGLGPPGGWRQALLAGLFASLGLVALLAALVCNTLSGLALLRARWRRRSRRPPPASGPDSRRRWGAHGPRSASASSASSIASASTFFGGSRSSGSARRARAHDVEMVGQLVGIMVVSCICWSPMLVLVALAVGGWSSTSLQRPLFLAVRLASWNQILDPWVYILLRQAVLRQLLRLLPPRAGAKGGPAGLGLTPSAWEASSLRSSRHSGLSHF
Procedure: as §3, §4, §5, §6

hEP3A/Gqi5 = target: T4, hEP3A/Gqi5 (Homo sapiens, UniProt P43115); assay: FLIPR calcium signal, hEP3A/Gqi5; format: cell-based; details: HEK-293(EBNA) cells, read-out: Functional EC50 (nM) HEP3A
T4 construct: expressed in transfected cells
T4 sequence (P43115 1-390): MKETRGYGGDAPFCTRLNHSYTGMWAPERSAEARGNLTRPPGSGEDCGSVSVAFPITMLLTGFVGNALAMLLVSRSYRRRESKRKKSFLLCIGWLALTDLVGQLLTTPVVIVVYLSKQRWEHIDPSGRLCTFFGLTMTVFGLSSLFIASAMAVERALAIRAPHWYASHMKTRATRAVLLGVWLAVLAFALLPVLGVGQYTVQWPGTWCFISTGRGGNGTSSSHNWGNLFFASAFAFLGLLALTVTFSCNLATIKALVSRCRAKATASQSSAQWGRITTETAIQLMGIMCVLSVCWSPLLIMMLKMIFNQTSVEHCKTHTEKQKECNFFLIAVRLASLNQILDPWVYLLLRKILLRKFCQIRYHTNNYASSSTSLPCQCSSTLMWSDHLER
Procedure: as §3, §4, §5, §6

hEP2/Gqs5 = target: T5, hEP2/Gqs5 (Homo sapiens, UniProt P43116); assay: FLIPR calcium signal, hEP2/Gqs5; format: cell-based; details: HEK-293(EBNA) cells, read-out: Functional EC50 (nM) HEP2
T5 construct: expressed in transfected cells
Procedure: as §3, §4, §5
Compounds were tested in a high-throughput (HTS) or concentration-response (CoRe) format. […]

hTP = target: T6, hTP (Homo sapiens, UniProt P21731); assay: FLIPR calcium signal, hTP; format: cell-based; details: HEK-293(EBNA) cells, read-out: Functional EC50 (nM) HTP
T6 construct: expressed in transfected cells
T6 sequence (P21731 1-343): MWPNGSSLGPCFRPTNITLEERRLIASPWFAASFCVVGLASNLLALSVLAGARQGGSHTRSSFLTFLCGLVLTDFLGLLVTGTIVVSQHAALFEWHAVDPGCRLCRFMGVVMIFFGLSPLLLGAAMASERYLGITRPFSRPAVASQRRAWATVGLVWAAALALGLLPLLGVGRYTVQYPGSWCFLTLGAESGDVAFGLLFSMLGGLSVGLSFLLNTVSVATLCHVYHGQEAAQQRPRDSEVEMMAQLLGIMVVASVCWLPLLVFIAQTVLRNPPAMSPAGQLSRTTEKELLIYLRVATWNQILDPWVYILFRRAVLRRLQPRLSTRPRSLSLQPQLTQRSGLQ
Procedure: as §3, §4, §5, §6

HEP3D = target: T7, HEP3D (Homo sapiens, UniProt P43115); assay: Radioligand binding, EP3 receptor; details: competition vs [3H]PGE2 5 nM
T7 sequence (P43115 1-374 isoform P43115-4): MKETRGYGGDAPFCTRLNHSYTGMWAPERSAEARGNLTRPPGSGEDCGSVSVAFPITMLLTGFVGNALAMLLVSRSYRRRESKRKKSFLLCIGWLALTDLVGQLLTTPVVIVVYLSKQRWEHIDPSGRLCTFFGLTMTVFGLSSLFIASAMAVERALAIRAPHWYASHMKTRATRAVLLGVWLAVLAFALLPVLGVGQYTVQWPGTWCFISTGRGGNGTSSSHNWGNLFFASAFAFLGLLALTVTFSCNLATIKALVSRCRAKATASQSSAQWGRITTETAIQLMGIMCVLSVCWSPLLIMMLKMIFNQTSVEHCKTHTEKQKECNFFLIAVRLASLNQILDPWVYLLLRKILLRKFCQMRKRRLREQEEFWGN
Procedure: as §1, §2
(§7) [^3H-] PGE2 (5 nM; specific activity 180 Ci mmol) was used as the radioligand for EP receptors. […] Non-specific binding determined with 10^−5M of unlabeled PGE2.

HEP2 = target: T8, HEP2 (Homo sapiens, UniProt P43116); assay: Radioligand binding, EP2 receptor; details: competition vs [3H]PGE2 5 nM, HEK-293 cell membranes
T8 construct: expressed in transfected cells; membrane fraction
Procedure: as §1, §2, §7

T5 sequence (P43116 whole entry): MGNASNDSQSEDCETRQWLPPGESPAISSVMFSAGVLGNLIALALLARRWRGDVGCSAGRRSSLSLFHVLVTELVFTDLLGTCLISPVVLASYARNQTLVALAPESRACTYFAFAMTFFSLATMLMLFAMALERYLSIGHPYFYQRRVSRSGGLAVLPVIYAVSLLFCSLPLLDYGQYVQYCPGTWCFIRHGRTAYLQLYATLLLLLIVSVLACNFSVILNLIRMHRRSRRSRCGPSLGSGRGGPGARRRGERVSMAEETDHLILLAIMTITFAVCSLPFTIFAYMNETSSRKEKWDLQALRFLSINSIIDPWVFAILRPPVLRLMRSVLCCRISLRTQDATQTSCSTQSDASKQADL
T1 sequence (P35408 whole entry): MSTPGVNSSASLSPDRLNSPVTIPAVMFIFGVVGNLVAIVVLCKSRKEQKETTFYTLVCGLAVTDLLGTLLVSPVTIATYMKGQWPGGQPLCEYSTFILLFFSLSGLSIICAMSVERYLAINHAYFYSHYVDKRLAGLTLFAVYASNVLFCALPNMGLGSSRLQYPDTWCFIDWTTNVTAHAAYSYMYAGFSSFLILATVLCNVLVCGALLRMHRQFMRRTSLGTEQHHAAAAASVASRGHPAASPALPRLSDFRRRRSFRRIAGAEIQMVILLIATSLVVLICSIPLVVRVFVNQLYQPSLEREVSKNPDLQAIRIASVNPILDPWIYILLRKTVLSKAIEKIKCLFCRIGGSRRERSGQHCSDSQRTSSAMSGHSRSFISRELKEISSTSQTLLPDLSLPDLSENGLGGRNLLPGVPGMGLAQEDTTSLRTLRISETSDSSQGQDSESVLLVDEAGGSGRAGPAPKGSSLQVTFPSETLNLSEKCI
T2 sequence (P35408 whole entry): as above
T8 sequence (P43116 whole entry): as the sequence (P43116 whole entry) above

Compound | IC50 (HEP4) | EC50 (hEP4/Gqs5) | other results
COC(=O)CCC/C=C\C[C@H]1C(=O)C[C@@H](C)[C@@H]1/C=C/C(O)CCc1sc2ccccc2c1Cl (some centres unmarked) | > 10000 nM | > 10000 nM | 
CC(C)[C@@H]1CC(=O)[C@H](C/C=C\CCCC(=O)O)[C@H]1/C=C/C(O)CCc1sc2ccccc2c1Cl (some centres unmarked) | > 10000 nM | > 10000 nM | 
CC[C@@H]1CC(=O)[C@H](C/C=C\CCCC(=O)O)[C@H]1/C=C/C(O)CCc1sc2ccccc2c1Cl (some centres unmarked) | 2100 nM | 708 nM | 
COC(=O)CCC/C=C\C[C@H]1C(=O)C[C@@H](CO)[C@@H]1/C=C/C(O)CCc1sc2ccccc2c1Cl (some centres unmarked) [drawing 31] |  | > 10000 nM | 
COC(=O)CCC/C=C\C[C@H]1C(=O)C[C@@H](CO)[C@@H]1/C=C/C(O)Cc1cc2ccccc2s1 (some centres unmarked) [drawing 34] |  | > 10000 nM | EC50 (hEP1): > 10000 nM; EC50 (hTP): > 10000 nM
C=C[C@@H]1CC(=O)[C@H](C/C=C\CCCC(=O)O)[C@H]1/C=C/C(O)CCc1sc2ccccc2c1Cl (some centres unmarked) | 650 nM | 156 nM | IC50 (HEP2): > 10000 nM
CC[C@@H]1CC(=O)[C@H](C/C=C\CCCC(=O)OC)[C@H]1/C=C/C(O)CCc1sc2ccccc2c1Cl (some centres unmarked) | > 10000 nM |  | 
COC(=O)CCC/C=C\C[C@H]1C(=O)C[C@@H](C(C)C)[C@@H]1/C=C/C(O)CCc1sc2ccccc2c1Cl (some centres unmarked) | > 10000 nM |  | 
O=C(O)CCC/C=C\C[C@H]1C(=O)C[C@@H](CO)[C@@H]1/C=C/C(O)Cc1cc2ccccc2s1 (single isomer, unassigned) [drawing 36] |  | > 10000 nM | EC50 (hEP1): > 10000 nM; EC50 (hEP3A/Gqi5): > 10000 nM; EC50 (hEP2/Gqs5): > 10000 nM; EC50 (hTP): > 10000 nM

Continued, in another order:

IC50 (HEP4) | EC50 (hEP4/Gqs5) | Compound | other results
 | 515 nM | COC(=O)CCC/C=C\C[C@H]1C(=O)CC[C@@H]1/C=C/C(O)CCc1sc2ccccc2c1Cl (some centres unmarked) [drawing 38] | 
 | 1770 nM | O=C(O)CCC/C=C\C[C@H]1C(=O)C[C@@H](CO)[C@@H]1/C=C/C(O)Cc1cc2ccccc2s1 (single isomer, unassigned) [drawing 37] | EC50 (hEP1): 9 nM; EC50 (hEP3A/Gqi5): 99 nM; EC50 (hEP2/Gqs5): > 10000 nM
 | 862 nM | COC(=O)CCC/C=C\C[C@H]1C(=O)CC[C@@H]1/C=C/C(O)CCc1sc2ccccc2c1Cl (some centres unmarked) [drawing 39] | EC50 (hTP): > 10000 nM
1800 nM | 153 nM | C[C@@H]1CC(=O)[C@H](C/C=C\CCCC(=O)O)[C@H]1/C=C/C(O)CCc1sc2ccccc2c1Cl (some centres unmarked) | EC50 (hEP1): > 10000 nM; EC50 (hEP3A/Gqi5): > 10000 nM
> 10000 nM | 1700 nM | C=C[C@@H]1CC(=O)[C@H](C/C=C\CCCC(=O)OC)[C@H]1/C=C/C(O)CCc1sc2ccccc2c1Cl (some centres unmarked) | 
110 nM | 25 nM | O=C(O)CCC/C=C\C[C@H]1C(=O)CC[C@@H]1/C=C/C(O)CCc1sc2ccccc2c1Cl (some centres unmarked) [drawing 41] | EC50 (hEP3A/Gqi5): > 10000 nM; EC50 (hTP): > 10000 nM; IC50 (HEP3D): 3700 nM
150 nM | 11 nM | O=C(O)CCC/C=C\C[C@H]1C(=O)CC[C@@H]1/C=C/C(O)CCc1sc2ccccc2c1Cl (some centres unmarked) [drawing 40] | IC50 (HEP3D): 6000 nM; IC50 (HEP2): > 10000 nM
 | 1790 nM | O=C(O)CCC/C=C\C[C@H]1C(=O)C[C@@H](CO)[C@@H]1/C=C/C(O)CCc1sc2ccccc2c1Cl (some centres unmarked) [drawing 33] | 
 | > 10000 nM | COC(=O)CCC/C=C\C[C@H]1C(=O)C[C@@H](CO)[C@@H]1/C=C/C(O)Cc1cc2ccccc2s1 (some centres unmarked) [drawing 35] | EC50 (hEP1): > 10000 nM; EC50 (hEP3A/Gqi5): 9000 nM; EC50 (hEP2/Gqs5): > 10000 nM; EC50 (hTP): > 10000 nM
 | 1240 nM | O=C(O)CCC/C=C\C[C@H]1C(=O)C[C@@H](CO)[C@@H]1/C=C/C(O)CCc1sc2ccccc2c1Cl (some centres unmarked) [drawing 32] | 
 | > 10000 nM | COC(=O)CCC/C=C\C[C@H]1C(=O)C[C@@H](CO)[C@@H]1/C=C/C(O)CCc1sc2ccccc2c1Cl (some centres unmarked) [drawing 30] | 
